Test [1] concerns Δ 15@3' (RNA, aptamer) GGGACACAAUGGACGAUCAUAUAACGAUAGCACUGGCGUAGGGAGACUACGUGUCCGUGUGUACCUAA
Briefly: phosphorescence titration. The conditions noted are these: 100 mM NaCl, 5 mM MgCl2; 20 mM HEPES pH 7.0; 1 μM compound, RNA 1 to 10 μM.

Test [2] concerns 12Rd-5 (RNA, aptamer) GGGACACAAUGGACGAUCAUAUAACGAUAGCACUGGCGUAGGGAGACUACGUGUCCGUGUGUACCUAACGGCCGACAUGAGAG
Put plainly: phosphorescence titration. The conditions noted are these: 100 mM NaCl, 5 mM MgCl2; 20 mM HEPES pH 7.0; 1 μM compound, RNA 1 to 10 μM.

Test [3] has as its system 12Rd-4 (RNA, aptamer) GGGACACAAUGGACGGGCACAAGGUCCCACCAUCUCAGACGAGAAAGGAUACGCAGAUCGGCGAAUAACGGCCGACAUGAGAG
Briefly: phosphorescence titration. The conditions noted are these: 100 mM NaCl, 5 mM MgCl2; 20 mM HEPES pH 7.0; 1 μM compound, RNA up to 10 μM.

For test [4], the system named is Δ 25@3' (RNA, aptamer) GGGACACAAUGGACGAUCAUAUAACGAUAGCACUGGCGUAGGGAGACUACGUGUCCGU
Briefly: phosphorescence titration. The conditions noted are these: 100 mM NaCl, 5 mM MgCl2; 20 mM HEPES pH 7.0; 1 μM compound, RNA 1 to 10 μM.

The subject of test [5] is 12Rd-1 (RNA, aptamer) GGGACACAAUGGACGGUACGUAUUGCGUGGGACCCCGCGCAAUGAACUGGCCGAGGGAGACUCGGUAACGGCCGACAUGAGAG
Put plainly: phosphorescence titration. The conditions noted are these: 100 mM NaCl, 5 mM MgCl2; 20 mM HEPES pH 7.0; 1 μM compound, RNA 1 to 10 μM.

The subject of test [6] is 12Rd-3 (RNA, aptamer) GGGACACAAUGGACGUGGGGCUACAGACCAUCCGUUCUAUCCCGAGCACCGGGCCAAUCUCAAGUUAACGGCCGACAUGAGAG
Briefly: phosphorescence titration. The conditions noted are these: 100 mM NaCl, 5 mM MgCl2; 20 mM HEPES pH 7.0; 1 μM compound, RNA up to 10 μM.

Test [7] relates to 12Rd-2 (RNA, aptamer) GGGACACAAUGGACGGCAGAUCUGAGAGGGGAAGACCCUUUGUUAUUAACGAACUUGCGGUAUGAUAACGGCCGACAUGAGAG
Put plainly: phosphorescence titration. The conditions noted are these: 100 mM NaCl, 5 mM MgCl2; 20 mM HEPES pH 7.0; 1 μM compound, RNA 1 to 10 μM.

Test [8] deals with Δ Loop2 (RNA, aptamer) GGGAUGGACGAUCAUAUAACGAUAGCGUAGGGAGACUACGUGUCCGU
Put plainly: phosphorescence titration. The conditions noted are these: 100 mM NaCl, 5 mM MgCl2; 20 mM HEPES pH 7.0; 1 μM compound, RNA up to 10 μM.

Test [9] deals with Δ Hairpin loop1 (RNA, aptamer) GGGAUGGACGAUAGCACUGGCGUAGGGAGACUACGUGUCCGU
Put plainly: phosphorescence titration. The conditions noted are these: 100 mM NaCl, 5 mM MgCl2; 20 mM HEPES pH 7.0; 1 μM compound, RNA up to 10 μM.

The subject of test [10] is Ru(bpy)3^2+ aptamer (Δ 25@3', Δ 5@5'; 53 nt) (RNA, aptamer) GGGAUGGACGAUCAUAUAACGAUAGCACUGGCGUAGGGAGACUACGUGUCCGU
Briefly: phosphorescence titration. The conditions noted are these: 100 mM NaCl, 5 mM MgCl2; 20 mM HEPES pH 7.0; 1 μM compound, RNA 1 to 10 μM.

For test [11], the system named is Δ Hairpin loop2 (RNA, aptamer) GGGAUGGACGAUCAUAUAACGAUAGCACUGGUGUCCGU
Put plainly: phosphorescence titration. The conditions noted are these: 100 mM NaCl, 5 mM MgCl2; 20 mM HEPES pH 7.0; 1 μM compound, RNA up to 10 μM.

Test [12] has as its system Ru(bpy)3^2+ aptamer (Δ 25@3', Δ 5@5'; 53 nt) (RNA, aptamer) GGGAUGGACGAUCAUAUAACGAUAGCACUGGCGUAGGGAGACUACGUGUCCGU
Briefly: ITC. The conditions noted are these: Na+ (phosphate-buffered saline, concentration not stated); PBS (Takara T900); 5 μM aptamer in cell, 50 μM compound in syringe.

Test [13] has as its system 2'-F aptamer (RNA, aptamer, 2'-F RNA (DuraScribe T7 transcription; modified positions not stated)) GGGAUGGACGAUCAUAUAACGAUAGCACUGGCGUAGGGAGACUACGUGUCCGU
Put plainly: phosphorescence titration. The conditions noted are these: 100 mM NaCl, 5 mM MgCl2; 20 mM HEPES pH 7.0; 1 μM compound, RNA up to 10 μM.

Test [14] concerns Δ 31@3 (RNA, aptamer) GGGACACAAUGGACGAUCAUAUAACGAUAGCACUGGCGUAGGGAGACUACGU
Put plainly: phosphorescence titration. The conditions noted are these: 100 mM NaCl, 5 mM MgCl2; 20 mM HEPES pH 7.0; 1 μM compound, RNA up to 10 μM.

For the compound `[Ru+2].c1ccc(-c2ccccn2)nc1.c1ccc(-c2ccccn2)nc1.c1ccc(-c2ccccn2)nc1`, the binding entry in test [1] is reported as “yes”; in [3] it was “no”; in [4], “yes”; in test [6], “no”; in [8], “no”; in test [9] it was “no”. For the same compound, the binding entry in test [10] is “yes”; in [11], “no”; in test [12], “no”; in test [13] it was “no”; in test [14], “no”. The Kd (usually a measure of binding affinity in units of concentration) came out at 118 ± 90 nM in [2], 1600 nM in test [5], 1000 nM in [7] and 65 nM in test [12].

Source of the values: paper PMC5324105 (2017).
